Reference: patent US10807978B2, “Process for preparation of palbociclib” (DR. REDDY'S LABORATORIES LIMITED, priority 2016, dated 2020)

Assay: Surface Area (BET method)
Assay type: physicochemical
Settings: isolated palbociclib free base solid

Compound | Surface Area (BET method)
CC(=O)c1c(C)c2cnc(Nc3ccc(N4CCNCC4)cn3)nc2n(C2CCCC2)c1=O [Example 9, 6-acetyl-8-cyclopentyl-5-methyl-2-{[5-(piperazin-1-yl)pyridin-2yl]amino}-pyrido[2,3-d]pyrimidin-7(8H)-one] | 3.61 m^2/g
CC(=O)c1c(C)c2cnc(Nc3ccc(N4CCNCC4)cn3)nc2n(C2CCCC2)c1=O [Example 11, 6-acetyl-8-cyclopentyl-5-methyl-2-{[5-(piperazin-1-yl)pyridin-2yl]amino}-pyrido[2,3-d]pyrimidin-7(8H)-one] | 9.38 m^2/g
